Results as given in patent US10000516B2 (priority 2015, dated 2018).

Target: T1, Human Factor D (Homo sapiens, UniProt P00746)
T1 construct: purified from human serum; purchased Complement Technology, Inc; host or cells: human serum (natural protein, not recombinant)
Experiment: Human Factor D assay (Z-L-Lys-SBzl/DTNB, absorbance at 405 nm)
Assay type: biochemical
Settings: not given
Procedure: Example 44. Human Factor D Assay
Human Factor D (purified from human serum, Complement Technology, Inc.) at 80 nM final concentration was incubated with test compound at various concentrations for 5 minutes at room temperature in 50 mM Tris, 1M NaCl, pH 7.5. A synthetic substrate Z-L-Lys-SBzl and DTNB (Ellman's reagent) are added to final concentrations of 100 µM each. Absorbance at 405 nm (A405) was recorded at 30 second intervals for 30 minutes using a microplate spectrophotometer. IC50 values are calculated by nonlinear regression of complement Factor D reaction rates as a function of test compound concentration.

T1 sequence (P00746 26-253): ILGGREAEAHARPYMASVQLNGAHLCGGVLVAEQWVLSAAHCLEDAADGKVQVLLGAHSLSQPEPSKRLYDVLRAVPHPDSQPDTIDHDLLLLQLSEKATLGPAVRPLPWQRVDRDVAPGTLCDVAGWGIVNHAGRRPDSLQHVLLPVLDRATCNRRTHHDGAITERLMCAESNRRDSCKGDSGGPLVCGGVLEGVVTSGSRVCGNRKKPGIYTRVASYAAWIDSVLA

| SMILES | IC50 |
| --- | --- |
| CC(=O)c1cn(CC(=O)N2[C@@H]3CCC[C@@H]3C[C@H]2C(=O)NCc2cccc(Cl)c2F)c2cc(P(=O)(O)O)ccc12 [Compound 7, 3-acetyl-1-(2-((2S,3aR,6aR)-2-(3-chloro-2-fluorobenzylcarbamoyl)hexahydrocyclopenta [b]pyrrol-1(2H)-yl)-2-oxoethyl)-1H-indol-6-ylphosphonic acid] | < 1000 nM |

Same assay, conditions: Table 1; Human Factor D 80 nM, purified from human serum; substrate Z-L-Lys-SBzl; read-out: IC50

| SMILES | IC50 |
| --- | --- |
| CC(=O)c1cn(CC(=O)N2C[C@H](F)C[C@H]2C(=O)NCc2cccc(Cl)c2F)c2cc(P(=O)(O)c3ccccc3)ccc12 [Compound 25, 3-acetyl-1-(2-((2S,4R)-2-(3-chloro-2-fluorobenzylcarbamoyl)-4-fluoropyrrolidin-1-yl)-2-oxoethyl)-1H-indol-6-yl(phenyl)phosphinic acid] | < 1000 nM |
| CC(=O)c1cn(CC(=O)N2C[C@H](F)C[C@H]2C(=O)NCc2cccc(Cl)c2F)c2cc(P(=O)(OCOC(=O)OC(C)C)OCOC(=O)OC(C)C)ccc12 [Compound 4, ((3-acetyl-1-(2-((2S,4R)-2-(3-chloro-2-fluorobenzylcarbamoyl)-4-fluoropyrrolidin-1-yl)-2-oxoethyl)-1H-indol-6-yl)phosphoryl)bis(oxy) bis(methylene) isopropyl dicarbonate] | < 1000 nM |
| CCOP(=O)(OCOC(=O)OC(C)C)c1ccc2c(C(C)=O)cn(CC(=O)N3C[C@H](F)C[C@H]3C(=O)NCc3cccc(Cl)c3F)c2c1 (stereo partly drawn) [Compound 6, ((3-acetyl-1-(2-((2S,4R)-2-(3-chloro-2-fluorobenzylcarbamoyl)-4-fluoropyrrolidin-1-yl)-2-oxoethyl)-1H-indol-6-yl)(ethoxy)phosphoryloxy) methyl isopropyl carbonate] | < 1000 nM |
| CCOP(=O)(OCC)c1ccc2c(C(=O)OC)cn(CC(=O)N3C[C@H](F)C[C@H]3C(=O)NCc3cccc(Cl)c3F)c2c1 [Compound 13, methyl 1-(2-((2S,4R)-2-(3-chloro-2-fluorobenzylcarbamoyl)-4-fluoropyrrolidin-1-yl)-2-oxoethyl)-6-(diethoxyphosphoryl)-1H-indole-3-carboxylate] | < 1000 nM |
| CC(=O)c1cn(CC(=O)N2C[C@H](F)C[C@H]2C(=O)NCc2cccc(Cl)c2F)c2cc(P(=O)(O)O)ccc12 [Compound 3, 3-acctyl-1-(2-((2S,4R)-2-(3-chloro-2-fluorobenzylcarbamoyl)-4-fluoropyrrolidin-1-yl)-2-oxoethyl)-1H-indol-6-ylphosphonic acid] | < 1000 nM |
| NC(=O)c1cn(CC(=O)N2C[C@H](F)C[C@H]2C(=O)NCc2cccc(Cl)c2F)c2cc(P(=O)(O)O)ccc12 [Compound 16, 3-carbamoyl-1-(2-((2S,4R)-2-(3-chloro-2-fluorobenzylcarbamoyl)-4-fluoropyrrolidin-1-yl)-2-oxoethyl)-1H-indol-6-ylphosphonic acid] | < 1000 nM |
| CCOP(=O)(OCC)c1ccc2c(C(=O)O)nn(CC(=O)N3C[C@H](F)C[C@H]3C(=O)NCc3cccc(Cl)c3F)c2c1 [Compound 12, 1-(2-((2S,4R)-2-(3-chloro-2-fluorobenzylcarbamoyl)-4-fluoropyrrolidin-1-yl)-2-oxoethyl)-6-(diethoxyphosphoryl)-1H-indazole-3-carboxylic acid] | > 10000 nM |
| CC(=O)c1cn(CC(=O)N2C[C@H](F)C[C@H]2C(=O)NCc2cccc(Cl)c2F)c2ccc(P(=O)(O)O)cc12 [Compound 10, 3-acetyl-1-(2-((2S,4R)-2-(3-chloro-2-fluorobenzylcarbamoyl)-4-fluoropyrrolidin-1-yl)-2-oxoethyl)-1H-indol-5-ylphosphonic acid] | < 1000 nM |
| CCOP(=O)(O)c1ccc2c(C(C)=O)cn(CC(=O)N3C[C@H](F)C[C@H]3C(=O)NCc3cccc(Cl)c3F)c2c1 [Compound 2, ethyl hydrogen 3-acetyl-1-(2-((2S,4R)-2-(3-chloro-2-fluorobenzylcarbamoyl)-4-fluoropyrrolidin-1-yl)-2-oxoethyl)-1H-indol-6-ylphosphonate] | < 1000 nM |
| CC(=O)c1cn(CC(=O)N2C[C@H](F)C[C@H]2C(=O)NCc2cccc(Cl)c2F)c2cc(P(=O)(O)OCOC(=O)OC(C)C)ccc12 [Compound 22, ((3-acetyl-1-(2-((2S,4R)-2-(3-chloro-2-fluorobenzylcarbamoyl)-4-fluoropyrrolidin-1-yl)-2-oxoethyl)-1H-indol-6-yl)(hydroxy)phosphoryloxy) methyl isopropyl carbonate] | < 1000 nM |
| CC(=O)c1cn(CC(=O)N2C[C@H](F)C[C@H]2C(=O)NCc2cccc(Cl)c2F)c2cc(P(=O)(O)OCC(F)(F)F)ccc12 [Compound 29, 2,2,2-trifluoroethyl hydrogen 3-acetyl-1-(2-((2S,4R)-2-(3-chloro-2-fluorobenzylcarbamoyl)-4-fluoropyrrolidin-1-yl)-2-oxoethyl)-1H-indol-6-ylphosphonate] | < 1000 nM |
| NC(=O)c1nn(CC(=O)N2C[C@H](F)C[C@H]2C(=O)NCc2cccc(Cl)c2F)c2cc(P(=O)(O)O)ccc12 [Compound 18, 3-carbamoyl-1-(2-((2S,4R)-2-(3-chloro-2-fluorobenzylcarbamoyl)-4-fluoropyrrolidin-1-yl)-2-oxoethyl)-1H-indazol-6-ylphosphonic acid] | < 1000 nM |

Same assay, conditions: Table 3; Human Factor D 80 nM, purified from human serum; substrate Z-L-Lys-SBzl; read-out: IC50 (Stars)

| SMILES | IC50 |
| --- | --- |
| CCOP(=O)(OCC)c1ccc2c(c1)c(C(C)=O)cn2CC(=O)N1C[C@H](F)C[C@H]1CCNS(=O)(=O)c1ccccc1 [Compound 95, diethyl (3-acetyl-1-(2-((2R,4R)-4-fluoro-2-(2-(phenylsulfonamido)ethyl)pyrrolidin-1-yl)-2-oxoethyl)-1H-indol-5-yl)phosphonate] | > 10000 nM |
| CC(=O)c1cn(CC(=O)N2C[C@H](F)C[C@H]2C(=O)NCCc2ccccc2)c2ccc(P(=O)(O)O)cc12 [Compound 79, (3-acetyl-1-(2-((2S,4R)-4-fluoro-2-(phenethylcarbamoyl)pyrrolidin-1-yl)-2-oxoethyl)-1H-indol-5-yl)phosphonic acid] | > 10000 nM |
| CCOP(=O)(OCC)c1nc2c(s1)c(C(N)=O)nn2CC(=O)N1C[C@H](F)C[C@H]1C(=S)NC1CCC(c2cc3sccc3s2)C1 (stereo partly shown) [Compound 148] | > 10000 nM |
| CC(=O)c1nn(CC(=O)N2[C@H](C(=O)Nc3cccc(Br)n3)C[C@@]3(C)C[C@@H]23)c2cc(P(=O)(O)O)ccc12 [Compound 106, (3-acetyl-1-(2-((1R,3S,5R)-3-((6-bromopyridin-2-yl)carbamoyl)-5-methyl-2-azabicyclo[3.1.0]hexan-2-yl)-2-oxoethyl)-1H-indazol-6-yl) phosphonic acid] | < 1000 nM |
| CCOP(=O)(OCC)c1nc2c(s1)c(C(N)=O)nn2CC(=O)N1[C@@H]2C[C@@H]2C[C@H]1C(=O)Nc1cccc(-c2cc(C(C)=O)ccc2Cl)c1F [Compound 104, diethyl (1-(2-((1R,3S,5R)-3-((5′-acetyl-2′-chloro-2-fIuoro-[1,1′-biphenyl]-3-yl)carbamoyl)-2-azabicyclo[3.1.0]hexan-2-yl)-2-oxoethyl)-3-carbamoyl-1H-pyrazolo[3,4-d]thiazol-5-yl)phosphonate] | < 1000 nM |
| CC(=O)c1cn(CC(=O)N2C[C@H](F)C[C@H]2CCNS(=O)(=O)c2ccccc2)c2ccc(P(=O)(O)O)cc12 [Compound 96, (3-acetyl-1-(2-((2R,4R)-4-fIuoro-2-(2-(phenylsulfonamido)ethyl)pyrrolidin-1-yl)-2-oxoethyl)-1H-indol-5-yl)phosphonic acid] | > 10000 nM |
| Cc1cccc(NC(=O)[C@@H]2[C@H]3CC[C@H](C3)N2C(=O)Cn2cc(C(N)=O)c3cc(P(=O)(O)O)ccc32)n1 [Compound 103, (3-carbamoyl-1-(2-((1R,3S,4S)-3-((6-methylpyridin-2-yl)carbamoyl)-2-azabicyclo[2.2.1]heptan-2-yl)-2-oxoethyl)-1H-indol-5-yl)phosphonic acid] | > 10000 nM |
| CCOP(=O)(OCC)c1ccc2c(c1)c(C(C)=O)cn2CC(=O)N1C[C@H](F)C[C@H]1C(=O)NCCc1ccccc1 [Compound 78, diethyl (3-acetyl-1-(2-((2S,4R)-4-fluoro-2-(phenethylcarbamoyl)pyrrolidin-1-yl)-2-oxoethyl)-1H-indol-5-yl)phosphonate] | > 10000 nM |
| CC(=O)c1cn(CC(=O)N2CC[C@H]2C(=O)Nc2cccc(C)n2)c2ccc(P(=O)(O)O)cc12 [Compound 101, (S)-(3-acetyl-1-(2-(2-((6-methylpyridin-2-yl)carbamoyl)azetidin-1-yl)-2-oxoethyl)-1H-indol-5-yl)phosphonic acid] | > 10000 nM |
